Assay results published in EP1754489A1, “A method of treating vitiligo using synergistic formation” (Ramaiah, Abburi, Prof., priority 2005, dated 2007).

How the values were obtained:
[1] = system: fast spreading vitiligo; test: Clinical trial: arrest of disease activity with oral minipulse (OMP) of beta methasone with or without local active peptide; assay type: in vivo, human volunteers
Text: (§1) That this happens was shown in a clinical trial on human volunteers. The above twin objectives were accomplished. Fig.2a describes two vitiligo patches at the start of treatment of oral steroids, while 2b describes the same patches at the end of 3 months of treatment with oral steroids while at the same time bFGF peptide(s) lotion was applied locally once a day on the lower vitiligo patch for the duration of intake of oral steroids. […] The arrest of the fast spread of the disease was accomplished to the same extent of 84% at the end of 6 months of treatment with oral steroids and the result was not altered by the local application of bFGF peptide(s) lotion (See table 3 for more details).

[2] = system: vitiligo patches of volunteers; test: Clinical trial: repigmentation with oral minipulse of beta methasone with or without local active peptide; assay type: in vivo, human volunteers
Text: as §1
At the end of 3 months of combinatorial treatment with steroids and local application of bFGF lotion more than 3 fold more patients got pigmented to a marked extent than with steroid alone (See Table 4 for more details). The percentage of volunteers who had moderate and marked rate of repigmentation with combinatorial therapy at the end of three months of treatment is twice than the steroid therapy alone.

C[C@H]1C[C@H]2[C@@H]3CCC4=CC(=O)C=C[C@]4(C)[C@@]3(F)[C@@H](O)C[C@]2(C)[C@@]1(O)C(=O)CO [OMP Alone, beta methasone]
No. of patients where the disease was arrested with time ([1]; At 3 months): 12
Patients where the disease was arrested, percent ([1]; At 3 months): 75%
No. of patients where the disease was arrested with time ([1]; At 6 months): 14
Patients where the disease was arrested, percent ([1]; At 6 months): 87.5%
Patients where the disease was arrested, percent ([1]; At 6 months, listed as oral steroids): 84%
Repigmentation Marked, number of volunteers ([2]; At 3 months): 2
Repigmentation Minimal, number of volunteers ([2]; At 3 months): 11
Repigmentation Moderate, number of volunteers ([2]; At 3 months): 3
Repigmentation Marked, number of volunteers ([2]; At 6 months): 4
Repigmentation Minimal, number of volunteers ([2]; At 6 months): 8
Repigmentation Moderate, number of volunteers ([2]; At 6 months): 4
